Twelve compounds from PubChem BioAssay (NCI) can be followed below.

Values joined by “and” are separate entries in the source; they are usually repeats but may differ in a detail not shown here. Equal values may be shown once.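 Method: 48-hour compound exposure of cells in 96-well plates, five concentrations, linear interpolation of endpoints. GI50: concentration for 50% inhibition of growth. TGI marks complete inhibition of growth.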

Among the test systems are A498 renal; BT-549 breast; HOP-62 NSCLC; M14 melanoma; MALME-3M melanoma; NCI-H460 lung; OVCAR-8 ovarian; SF-295 CNS; SK-MEL-28 melanoma; UO-31 renal.
Assay in all cases: NCI anticancer screen, dose series, 48 h

With `COc1c(NC(C)=O)c2ccccc2c2ccccc12`, the TGI with A498 renal, with BT-549 breast, with HOP-62 NSCLC, in the assay on M14 melanoma, in the assay on MALME-3M melanoma and in the assay on NCI-H460 lung was greater than 100 µM in each case. The TGI in the assay with OVCAR-8 ovarian, in the assay on SF-295 CNS, with SK-MEL-28 melanoma and in the assay on UO-31 renal was greater than 100 µM in each case.

As to `CC(=O)N1CCOC12N=NC(C)(C)O2` (stereo not given), the TGI in the assay with A498 renal, with BT-549 breast, with HOP-62 NSCLC, in the assay on M14 melanoma, in the assay with MALME-3M melanoma and in the assay on NCI-H460 lung was greater than 100 µM throughout. In addition, the TGI with OVCAR-8 ovarian, in the assay with SF-295 CNS, with SK-MEL-28 melanoma and in the assay with UO-31 renal was greater than 100 µM throughout.

With `C(=Nc1ccc(-c2nc3ccccc3s2)cc1)c1cccs1`, the TGI is 76.6 µM with A498 renal; greater than 100 µM in the assay with BT-549 breast; greater than 100 µM in the assay on HOP-62 NSCLC; greater than 100 µM in the assay with M14 melanoma; greater than 100 µM in the assay on MALME-3M melanoma; greater than 100 µM in the assay with NCI-H460 lung. Further, the TGI in the assay with OVCAR-8 ovarian was greater than 100 µM; in the assay with SF-295 CNS, 68.8 µM; in the assay with SK-MEL-28 melanoma, greater than 100 µM; in the assay on UO-31 renal, greater than 100 µM.

Regarding `C/C(CC(O)(C(F)(F)F)C(F)(F)F)=N\O`, the TGI in the assay with A498 renal, in the assay on BT-549 breast, in the assay on HOP-62 NSCLC, with M14 melanoma, in the assay with MALME-3M melanoma and in the assay with NCI-H460 lung was greater than 10 µM in each case. For the same compound, the TGI in the assay on OVCAR-8 ovarian, in the assay with SF-295 CNS and in the assay on SK-MEL-28 melanoma was greater than 10 µM in each case.

In the case of `CC12CC(c3ccccc3O1)C(C(=O)Nc1nccs1)C(=O)N2` (stereo not given), the TGI with A498 renal, with BT-549 breast, in the assay on HOP-62 NSCLC, in the assay with M14 melanoma, in the assay with MALME-3M melanoma and in the assay with NCI-H460 lung was greater than 100 µM in each case. The TGI with OVCAR-8 ovarian, with SF-295 CNS, in the assay with SK-MEL-28 melanoma and in the assay on UO-31 renal was greater than 100 µM throughout.

On to `O=C(NC1=C(Cl)C(=O)c2ccccc2C1=O)C(=O)c1c(O)c2ccccc2oc1=O`, for which the TGI in the assay with A498 renal amounted to 33.9 µM; with BT-549 breast, 14.6 µM; in the assay on HOP-62 NSCLC it was 18.8 µM; in the assay on M14 melanoma, 4.4 µM; with MALME-3M melanoma, 2.7 µM; in the assay on NCI-H460 lung it was 7.68 µM. Moreover, the TGI with OVCAR-8 ovarian was 31 µM; in the assay with SF-295 CNS, 9.58 µM; in the assay on SK-MEL-28 melanoma, 6.2 µM; with UO-31 renal, 21.1 µM.

As to `O=C(NCc1cn(Cc2cccc(Oc3ccccc3)c2)nn1)c1cccnc1NCc1ccc(Cl)cc1`, the GI50 in the assay with A498 renal is 2.12 µM; in the assay with BT-549 breast, 2.72 µM; in the assay with HOP-62 NSCLC it was 5.69 µM; with M14 melanoma, 2.49 µM; in the assay on MALME-3M melanoma, 5.69 µM; in the assay with NCI-H460 lung, 2.85 µM. The GI50 is 3.63 µM with OVCAR-8 ovarian, 2.95 µM in the assay with SK-MEL-28 melanoma and 3 µM in the assay with UO-31 renal. Also, the TGI is 7.95 µM in the assay on A498 renal; 7.63 µM with BT-549 breast; greater than 100 µM with HOP-62 NSCLC; 5.7 µM with M14 melanoma; greater than 100 µM with MALME-3M melanoma; 7.83 µM in the assay with NCI-H460 lung. Also, the TGI in the assay on OVCAR-8 ovarian, in the assay with SK-MEL-28 melanoma and with UO-31 renal was greater than 100 µM in each case.

As for `O=C(O)c1c(CC(Cc2ccccc2)C(=O)O)ccc2c1CCC2` (stereo not given), the TGI in the assay with A498 renal, in the assay with BT-549 breast, in the assay with HOP-62 NSCLC, with MALME-3M melanoma, with NCI-H460 lung and in the assay with OVCAR-8 ovarian was greater than 100 µM in each case. For the same compound, the TGI with SF-295 CNS, in the assay on SK-MEL-28 melanoma and in the assay on UO-31 renal was greater than 100 µM throughout.

Consider `CC(C)(C)c1cc(C(C)(C)C)c(SC2OC(CO)C(O)C(O)C2O)c(O)c1O` (stereo not given), for which the TGI is 34.8 µM in the assay on A498 renal; 27 µM in the assay with BT-549 breast; 33.9 µM with HOP-62 NSCLC; greater than 100 µM in the assay with M14 melanoma; 26.9 µM in the assay with MALME-3M melanoma; 10.5 µM in the assay on NCI-H460 lung. In addition, the TGI in the assay with OVCAR-8 ovarian stood at 27.7 µM; with SF-295 CNS, 28.3 µM; in the assay with SK-MEL-28 melanoma it was 70.5 µM; in the assay on UO-31 renal it was 79.2 µM.

`Oc1ccc(Nc2nc(Cl)c3[nH]cnc3n2)cc1`: the TGI in the assay with A498 renal, in the assay on BT-549 breast, with HOP-62 NSCLC, in the assay on M14 melanoma, in the assay on MALME-3M melanoma and in the assay with NCI-H460 lung was greater than 100 µM each time. The TGI in the assay with OVCAR-8 ovarian, in the assay on SF-295 CNS and in the assay with UO-31 renal was greater than 100 µM in each case.

As to `COc1ccc(-c2csc3c2[N+]2(C)C=CC=C2C3N2CCCC2)cc1` (stereo not given), the TGI in the assay with A498 renal was greater than 100 µM; in the assay with BT-549 breast, 58.3 µM; with HOP-62 NSCLC it was greater than 100 µM; with M14 melanoma, greater than 100 µM; in the assay with MALME-3M melanoma, 50.5 µM; with NCI-H460 lung, 46.8 µM. In addition, the results for the TGI in the assay on OVCAR-8 ovarian, in the assay on SF-295 CNS and in the assay on UO-31 renal were greater than 100 µM, 54 µM and greater than 100 µM, respectively.

Regarding `CCN(CC)CC[n+]1ccc2c(C)c3[nH]c4ccccc4c3c(C)c2c1`, the TGI was 25.2 µM and 28.8 µM and 17.9 µM with A498 renal; 4.95 µM with BT-549 breast; 3.46 µM and 7.99 µM and 4.74 µM in the assay on HOP-62 NSCLC; 3.28 µM in the assay on M14 melanoma; 1.92 µM and 2.27 µM and 1.15 µM in the assay with MALME-3M melanoma; 2.31 µM and 2.16 µM and 1.01 µM in the assay with NCI-H460 lung. Also, the TGI in the assay on OVCAR-8 ovarian was 4.97 µM and 5.17 µM and 2.25 µM; with SF-295 CNS, 6.9 µM and 15.1 µM and 6.83 µM; with SK-MEL-28 melanoma, 1.3 µM and 6.15 µM and 2.1 µM; in the assay with UO-31 renal, 78.6 µM and 44 µM and 16.8 µM. The GI50 in the assay on MALME-3M melanoma is 0.374 µM; with NCI-H460 lung, 0.332 µM; with OVCAR-8 ovarian it was 0.392 µM and 0.59 µM and 0.195 µM; in the assay on SF-295 CNS, 1.28 µM; in the assay on SK-MEL-28 melanoma, 1.13 µM; in the assay on UO-31 renal, 22.6 µM and 10.5 µM and 4.12 µM.
